The source made the active and inactive calls. How the calls were made is not given here.
Assay: growth inhibition of yeast carrying parasite Hsp90, dose response, anti-malarial Hsp90 inhibitor project, ATP luminescence, 48 h, cherry-picked samples (AID 540268);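 on activity change, negative = inhibition: 0% = neutral control wells and -100% = positive control wells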
Details: yeast expressing the parasite Hsp90, ATP luminescence

Q: Which AC50 does the source give for `COc1ccc(C(=O)NC(=S)NNC(=O)c2cnccn2)cc1` here?
A: 2.98 µM

Q: With `O=[N+]([O-])c1ccc(C=Nc2ccc(Cl)c([N+](=O)[O-])c2)s1` as the compound, how does the AC50 read?
A: 2.13 µM

Q: For `CCCCN(CCCC)CCC(O)c1cc2c(Cl)cc(Cl)cc2c2cc(C(F)(F)F)ccc12` (configuration not stated), which AC50 is on record?
A: 7.42 µM

Q: Which AC50 does the source give for `Cc1ccc(NC(=O)c2nc(S(=O)(=O)Cc3ccccc3)ncc2Cl)cc1` here?
A: 4.12 µM

Q: With `O=C1CC(c2ccccc2)=NN1c1nc(-c2ccccc2)cs1` as the compound, how does the AC50 read?
A: 1.14 µM

Q: Which AC50 does the source give for `Cn1ncc2c(Nc3cccc(Cl)c3)nc(Nc3cccc(Cl)c3)nc21` here?
A: 2.82 µM

Q: With `CCCCC(=O)NC(c1cccs1)c1cc(Cl)c2cccnc2c1O` (configuration not stated) as the compound, how does the AC50 read?
A: 4.18 µM

Q: With `CC(=O)Oc1ccccc1C(=O)C=Cc1cccc([N+](=O)[O-])c1` as the compound, how does the AC50 read?
A: 1.66 µM

Q: For `Cc1ccc(S(=O)(=O)Nc2cc(Cl)c(O)c3ncccc23)cc1`, which AC50 is on record?
A: 2.09 µM

Q: Which AC50 does the source give for `O=C(C#Cc1ccccc1)c1ccc([N+](=O)[O-])cc1` here?
A: 2.1 µM

Q: With `O=C(Nc1ccccc1)C(Cl)C(=O)c1ccccc1` (configuration not stated) as the compound, how does the AC50 read?
A: 0.532 µM

Q: With `COc1ccc(N=Cc2cc(Cc3ccccc3Cl)cc([N+](=O)[O-])c2O)cc1OC` as the compound, how does the AC50 read?
A: 1.5 µM

Q: Which AC50 does the source give for `O=C(NN1C(=O)/C(=C/c2ccc(O)c([N+](=O)[O-])c2)SC1=S)c1ccccc1Cl` here?
A: 4.13 µM

Q: Which AC50 does the source give for `COc1cccc(N=Nc2ccc(O)c3ncccc23)c1` here?
A: 3.57 µM

Q: With `Oc1c(C(Nc2nccs2)c2ccc(C(F)(F)F)cc2)ccc2cccnc12` (configuration not stated) as the compound, how does the AC50 read?
A: 2.49 µM

Q: For `CC(C)(C)C(=O)NC(=S)NNC(=O)c1sc2ccccc2c1Cl`, which AC50 is on record?
A: 7.72 µM

Q: For `CC(C)(C)C(O)C(Oc1ccc(Cl)cc1)n1cncn1` (configuration not stated), which AC50 is on record?
A: < 0.195 µM

Q: Which AC50 does the source give for `CCOC(=O)C1CCCN(C2CC(=O)N(c3cccc(C(F)(F)F)c3)C2=O)C1` (configuration not stated) here?
A: 4.24 µM

Q: Which AC50 does the source give for `O=C(c1ccc(Cl)cc1)N1CCN(c2ccc(F)cc2)CC1` here?
A: 4.47 µM

Q: With `O=C(Nc1nc(-c2ccccc2)c(-c2ccccc2)o1)c1ccc(F)cc1` as the compound, how does the AC50 read?
A: 8.21 µM

Q: For `CCCC(=O)NC(c1ccccc1Cl)c1ccc2cccnc2c1O` (configuration not stated), which AC50 is on record?
A: 4.13 µM

Q: With `O=C(OCC(=O)c1c[nH]c2ccccc12)c1ccc([N+](=O)[O-])s1` as the compound, how does the AC50 read?
A: 4.09 µM

Q: Which AC50 does the source give for `COc1ccc(C(=O)COC(=O)c2cc([N+](=O)[O-])ccc2N2CCOCC2)c(OC)c1` here?
A: 13.8 µM

Q: Which AC50 does the source give for `Oc1ccc(Cl)cc1Sc1cc(Cl)ccc1O` here?
A: 3.07 µM

Q: For `COc1ccc(C(=O)/C=C2\C(=O)Nc3ccc(Br)cc32)cc1`, which AC50 is on record?
A: 2.22 µM

Q: With `O=[N+]([O-])c1ccc(O)c(C2CCCCC2)c1` as the compound, how does the AC50 read?
A: 4.84 µM

Q: Which AC50 does the source give for `COc1ccc(NC(=O)CCC(=O)N/N=C/c2ccc([N+](=O)[O-])s2)cc1` here?
A: 3.33 µM

Q: With `C/C(=N\Nc1nc2ccccc2s1)c1ccc(Br)s1` as the compound, how does the AC50 read?
A: 4.47 µM

Q: Which AC50 does the source give for `Clc1ccc(N=c2ssnc2Cl)nc1` here?
A: 3.19 µM

Q: With `CCCCC(CC)CN=C(N)NC(N)=NCCCCCCN=C(N)NC(N)=NCC(CC)CCCC` (configuration not stated) as the compound, how does the AC50 read?
A: 4.34 µM

Q: Which AC50 does the source give for `F[B-](F)(F)c1cc2cc(Br)ccc2s1` here?
A: 6.2 µM

Q: For `CCCNC(=O)c1nnsc1S(=O)(=O)c1ccc(Cl)cc1`, which AC50 is on record?
A: 0.758 µM

Q: For `COc1ccc(NC(=O)c2sc3ncnc(N4CCN(c5ccccn5)CC4)c3c2C)cc1Cl`, which AC50 is on record?
A: 3.46 µM

Q: With `Cc1ccc(NC(=O)c2cc(N3C(=O)C=CC3=O)ccc2Cl)cc1C` as the compound, how does the AC50 read?
A: 0.92 µM

Q: With `Cn1nnnc1N=N/C(=N/Nc1ccccc1)c1ccccc1` as the compound, how does the AC50 read?
A: 3.2 µM

Q: For `Cc1occc1-c1nnc(-c2cc([N+](=O)[O-])cc([N+](=O)[O-])c2)o1`, which AC50 is on record?
A: 2.4 µM

Q: With `Cc1ccc(C2=NC(C)(C)N=C2SCC(=O)Nc2ccc(Cl)cc2)cc1` as the compound, how does the AC50 read?
A: 26.2 µM

Q: With `Cc1ccc(NC(=O)c2cc(N3C(=O)C=CC3=O)ccc2N2CCOCC2)cc1Cl` as the compound, how does the AC50 read?
A: < 0.195 µM

Q: Which AC50 does the source give for `CC[C@H](C)/C=C/C1=CC2=C(Cl)C(=O)[C@@]3(C)OC(=O)C(C(=O)[C@H](C)[C@@H](C)O)=C3C2=CO1` here?
A: 15.2 µM

Q: Which activity change, negative = inhibition (at 26 µM (top of the series)) does the source give for `O=C(/C(=C\c1ccccc1)c1nc2ccccc2[nH]1)c1ccc(Cl)cc1` here?
A: -31.8% (inactive)

Q: With `O=[N+]([O-])c1ccc(N=Nc2c(Cl)cc(O)cc2Cl)cc1` as the compound, how does the AC50 read?
A: 0.401 µM

Q: For `CC[C@@H]1Cc2cc(O)ccc2C2=C1c1ccc(O)cc1C[C@H]2CC`, which AC50 is on record?
A: 7.76 µM

Q: For `O=C1CC(N2CCCCCC2)C(=O)N1c1ccc2c(c1)OCO2` (configuration not stated), which AC50 is on record?
A: 4.12 µM

Q: For `COc1cccc(/C=N/NC(=O)C(=O)Nc2ccccc2OC(F)(F)C(F)F)c1O`, which AC50 is on record?
A: 0.731 µM

Q: Which AC50 does the source give for `Clc1nssc1=Nc1ccc(Br)cc1` here?
A: 3.4 µM

Q: For `Cc1ccc(CSc2nc3ccsc3c(=O)n2Cc2ccccn2)cc1`, which AC50 is on record?
A: 9.62 µM

Q: Which AC50 does the source give for `O=C(C#Cc1cccc([N+](=O)[O-])c1)c1ccccc1` here?
A: 0.36 µM

Q: For `COC(=O)c1ccc(N2C(=O)CC(N(C)Cc3ccccc3)C2=O)cc1` (configuration not stated), which AC50 is on record?
A: 8.53 µM

Q: For `CC(C)(C)C(O)C(Cc1ccccc1Cl)n1cncn1` (configuration not stated), which AC50 is on record?
A: < 0.195 µM

Q: Which AC50 does the source give for `Oc1c(C(c2ccccc2)N2CCOCC2)ccc2ccccc12` (configuration not stated) here?
A: 6.53 µM

Q: For `Cc1ccc(N2C(=O)C3C4C=CC(CNC(=S)N5CCN(c6cccc(C)c6)C(C)C5)(O4)C3C2=O)cc1` (configuration not stated), which AC50 is on record?
A: 4.65 µM

Q: For `O=[N+]([O-])c1oc2ccc3ccccc3c2c1CCO`, which AC50 is on record?
A: 2.06 µM

Q: For `O=C1/C(=C/c2ccncc2)CCC/C1=C\c1ccncc1`, which AC50 is on record?
A: 4.25 µM

Q: Which AC50 does the source give for `CSC(=S)NN=C(C)c1cccc(C)n1` here?
A: 15.6 µM

Q: Which AC50 does the source give for `Cc1ccc2[nH]c(C)c(/C=N/Nc3nc4ccccc4s3)c2c1` here?
A: 2.63 µM

Q: For `CCN(CC)c1ccc(C(=C2C=CC(=[N+](CC)CC)C=C2)c2ccccc2)cc1`, which AC50 is on record?
A: 1.09 µM

Q: Which AC50 does the source give for `CCCCCCCCn1sccc1=O` here?
A: 0.871 µM
